Results: patent publication US9204643B2, “Temperature stable cloquintocet-mexyl aqueous compositions” (Dow AgroSciences LLC, priority 2012, dated 2015)

Key:
[1] = Storage of hydrated CQCM/pyroxsulam concentrate two weeks at 54° C., chemical stability; type: physicochemical; conditions: for Chemical Stability: in hydrated CQCM/pyroxsulam concentrate
Protocol: The aqueous phase was formed by combining water, propylene glycol, antifoam, and wetter surfactant (SYNPERONIC 13/6.5; Croda USA) in a vessel. Powdered anhydrous CQCM was added to the aqueous phase and mixed with a low shear turbine type agitator for 1 hour or until the CQCM was fully converted to the hydrate. A tallow or coco-amine 15 mole ethoxylate (e.g., ETHOMEEN C-25; Akzo Nobel), and MORWET D-425 (Akzo Nobel) were added and mixed in with high shear agitation, followed by the addition of the remaining ingredients shown in Table 4. KELZAN S is a thickener commercially available from CPKelco; Atlanta, Ga. The slurry was then processed through a bead mill to yield the finished product. Short term accelerated storage testing was conducted using freeze/thaw (F/T) conditions during which the temperature was cycled between about −10° C. and 40° C. in a 2 hour period after remaining at −10° C. or 40° C. for 24 hours, as in Example 1. Samples of the composition containing pyroxsulam were also stored for two weeks at 54° C. to evaluate chemical stability of the CQCM […].

[2] = One year storage stability of hydrated CQCM/pyroxsulam concentrate in an unheated shed; type: physicochemical
Protocol: A 10 L production batch of the composition shown in Table 4 was prepared, dispatched for field trials in Australia, and stored for 1 year in an unheated shed subjected to temperatures ranging from −4° C. to 43° C.

Row | SMILES | Chemical Analysis (content in concentrate) ([1]; 54° C. (2 weeks)) | Chemical Stability ([1]; 54° C. (2 weeks)) | Chemical Analysis (content in concentrate) ([1]; initial composition) | Chemical Stability: Content ([2]; after 1 year, −4° C. to 43° C.) | Chemical Stability: Retention ([2]; after 1 year, −4° C. to 43° C.) | Chemical Stability: Content ([2]; initial)
1 | CCCCCC(C)OC(=O)COc1ccc(Cl)c2cccnc12 (stereo not drawn) [CQCM, Cloquintocet-mexyl] | 13.24 % w/w | 97% | 13.69 % w/w | CQCM: 14.40 % w/w | CQCM: 102% | CQCM: 14.15 % w/w
2 | COc1cc(OC)n2nc(NS(=O)(=O)c3c(C(F)(F)F)ccnc3OC)nc2n1 [Pyroxsulam] | 4.73 % w/w | 102% | 4.65 % w/w | Pyroxsulam: 4.84 % w/w | Pyroxsulam: 104% | Pyroxsulam: 4.65 % w/w
